The values below come from patent publication US20120021992A1, “METHODS FOR IMPROVING NEUROLOGICAL OUTCOME AFTER NEURAL INJURY AND NEURODEGENERATIVE DISEASE” (Henry Ford Health System, priority 2009, published 2012).

The test system of assay [1] is stroke (middle cerebral artery occlusion (MCAo)) rats. Nature of the assay: Embolic middle cerebral artery occlusion (MCAo) stroke model. It counts as in vivo, rat. The procedure:
(§1) Effectiveness of treatment with thymosin β4 was tested in stroke (middle cerebral artery occlusion (MCAo)) rats and in experimental autoimmune encephalomyelitis (EAE) mice (a well-established in vivo model for multiple sclerosis). Both the stroke rats and the EAE mice were treated with 6 mg/kg thymosin β4 intraperitoneally (IP) in a volume of 0.3 mL twenty-four hours after stroke or after the day of immunization in the EAE model and then every three days (6 mg/kg IP) for four additional doses. An equal volume of saline was administered (IP) to a group of both stroke rats and EAE mice as a control. Bromodeoxyuridine (BrdU; 100 mg/kg) was administered (IP) daily for seven days, initiated 24 hours after MCAo to label proliferating cells. Behavioral tests (adhesive removable test and NSS (Neurological Severity Score)) were performed immediately before treatment and at days 1, 7, 14, 21, 28, 35, 42, 49, and 56 days after MCAo and up to 30 days in the EAE mouse model. All rats were sacrificed 56 days after MCAo; EAE mice were sacrificed at 30 days.

In assay [2] the test system is experimental autoimmune encephalomyelitis (EAE) mice. Nature of the assay: Experimental autoimmune encephalomyelitis (EAE) model of multiple sclerosis. It counts as in vivo, mouse. Particulars: 6 mg/kg IP, up to 30 days, versus control, p<0.01 (FIG. 9). On the procedure: as §1
[3] abbreviates: embolic stroke rats, 6 mg/kg IP, versus saline control.

Regarding thymosin β4, the “number of myelinated axons” value in assay [1] (after MCAo, Bielschowsky and Luxol Fast Blue staining, p<0.05 (FIG. 4)) is reported as “increased”. Besides, the “cellular proliferation (BrdU expression, number of BrdU immunoreactive cells)” value in assay [1] (after MCAo, p<0.05 (FIG. 8)) is recorded as “also increased”. Further, in assay [1] (after MCAo, p<0.05 (FIGS. 5-7)), the “number of oligodendrocyte progenitors and matured oligodendrocytes” value was “increased”. Further, in assay [1] (beginning at 21 days after stroke onset, 6 mg/kg IP, p<0.05 (FIG. 1-2)), the “functional outcome by behavioral tests (adhesive removal test, NSS)” value is “Significant functional improvement”. Besides, in assay [1] (embolic stroke rats, 6 mg/kg IP from 24 h after MCAo, then every three days for four additional doses, versus saline control), the “relative increase in BrdU expression in the striatum or myelinated region of the rat brain” value is on record as 42%. Moreover, in assay [1] (setting [3]), the “increase in CNP, a marker of mature oligodendrocytes” value worked out at 11% and the “increase in NG-2, a marker of immature oligodendrocytes” value was found to be 47%. In assay [2], the functional neurological score entry is on record as “robust improvement”.
